Test results as given in patent US4551460A, “Pyrido[2,1-b]quinazoline derivatives useful as agents for treatment of allergic conditions and vascular disorders involving thrombosis” (priority 1983, dated 1985).
Like-named read-outs stand apart in the source and are kept apart here.

What was measured:
[1] = system: platelet activating factor induced platelet aggregation; test: Platelet activating factor induced platelet aggregation in vitro; format: cell-based; conditions: racemic platelet activating factor; read-out: PAF (IC50, platelet activating factor induced platelet aggregation)
Protocol: (§1) (1) Assay for Platelet Aggregation In Vitro
(§2) The turbidometric method of G. V. R. Born, Nature 194, 927 (1962) is used. Platelet rich plasma (PRP) and platelet poor plasma (PPP) are prepared with 0.38% sodium citrate-treated blood. Speed and time of centrifugation varied with different species; human:160 g for 20 minutes, dog:160 g for 15 minutes, guinea pig and rabbit:160 g for 15 minutes, and rat:230 g for 10 minutes. Aggregation is monitored with a Payton dual channel module or Chronolog lumiaggregometer when the release of ATP is simultaneously measured. 0.45 ml of PRP is added to a cuvette and prewarmed to 37° C. The stimulant (arachidonic acid or synthetic platelet activating factor) is added in volumes of 50 μl; all other agents in 5 μl. Vehicles are added to samples not containing agents. 0 to 100% light transmission is set with PRP and PPP. % aggregation is calculated from the % increase in light transmission at 5 minutes after the addition of the aggregating agent. For inhibition of aggregation studies the inhibitor is added first and preincubated with the platelets for 1 minute with stirring, followed by the stimulant. % inhibition is calculated from the % aggregation with and without the test compound. [formula]

[2] = target: T1, TXA2 synthase in human platelet microsomes (Homo sapiens, UniProt P24557); test: Thromboxane synthase (TXA2 syn.) inhibitory activity; format: biochemical; conditions: 10 μM PGH2
T1 construct: using microsomal fractions from human platelets as enzyme source; from tissue; host or cells: human platelets, microsomal fraction
T1 sequence (P24557 1-533): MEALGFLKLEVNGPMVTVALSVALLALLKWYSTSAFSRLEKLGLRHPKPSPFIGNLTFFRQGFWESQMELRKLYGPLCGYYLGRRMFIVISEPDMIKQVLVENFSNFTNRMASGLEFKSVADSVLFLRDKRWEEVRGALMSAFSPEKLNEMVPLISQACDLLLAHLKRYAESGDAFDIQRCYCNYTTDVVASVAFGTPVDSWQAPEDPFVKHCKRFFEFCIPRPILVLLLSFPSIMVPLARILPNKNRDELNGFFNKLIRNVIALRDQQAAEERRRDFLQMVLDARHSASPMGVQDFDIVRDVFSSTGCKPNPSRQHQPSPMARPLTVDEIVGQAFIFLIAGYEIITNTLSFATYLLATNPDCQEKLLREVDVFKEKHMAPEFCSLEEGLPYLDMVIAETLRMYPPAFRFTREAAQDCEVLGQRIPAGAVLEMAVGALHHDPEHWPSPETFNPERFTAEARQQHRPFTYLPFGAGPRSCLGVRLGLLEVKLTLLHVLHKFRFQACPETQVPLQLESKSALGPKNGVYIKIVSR
Protocol: (d) Assay for Thromboxane Synthase (TXA2 Syn.) Inhibitory Activity
TXA2 syn. activity is measured by following the conversion of ^14 C-prostaglandin endoperoxide (PGH2) to ^14 C-thromboxane A2 (TXA2) using microsomal fractions from human platelets as enzyme source. In the aqueous incubation medium, the TXA2 decomposes rapidly into TXB2. The amount of TXA2 syn. is adjusted so that under the conditions of the assay approximately 80-90% of the substrate, PGH2, is converted to product in control tubes. To prepare ^14 C-PGH2, ^14 C-AA (50-60 mCi/mmole; Rose Chem.) is incubated with sheep seminal vesicular gland microsomes for 1.5 min at 37° and then the ^14 C-PGH2 is extracted with diethylether, purified on columns of Sephadex LH-20 or silicic acid, and stored in acetone at -70° C. Incubations are done as follows. Sufficient ^14 C-PGH2 to yield a final substrate concentration of 10 μM (~30,000 cpm) is added to the incubation tubes and then the acetone is removed under nitrogen. The tubes are placed in an ice bath and then 215 μl of ice cold phosphate buffered saline, 10 μl of ethanol (control) or of test drug in ethanol, and 25 μl of the microsomal suspension are added with mixing in that order as rapidly as possible. The tubes are incubated at 22° for 2 minutes, the reaction is stopped and then the radioactive products and the uncoverted PGH2 are extracted and analyzed by thin layer chromatography. […] The amount of ^14 C-PGH2 converted to products was used as a measure of TXA2 synthase activity. Inhibitors were tested initially at a final concentration of 100 μM.

[3] = system: KCl-induced constriction in guinea pig ilea; test: Antagonism of KCl-induced constriction in guinea pig ilea
Protocol: (h) Antagonism of KCl-induced Constriction in Guinea Pig Ilea
A 1-1.5 cm segment of guinea pig ileum removed from animals weighing 200-250 g is suspended in an organ bath containing 10 ml of Tyrodes solution with 10^-6 M atropine sulfate and 10^-6 M pyrilamine maleate. The bath is maintained at 37° C. and aerated with a mixture of 95% O2 and 5% CO2. KCl induces isometric constrictions of the ileum at concentrations between 10-30mM. The contractions consist of two phases, an initial fast contraction (the phasic portion), followed by a relaxation down to less intense but more prolonged contraction (the tonic phase). Varying concentrations of test drugs are incubated with the ileum for three minutes prior to KCl-challenge. The drug concentrations, which inhibit by 50% the phasic and tonic portion of the KCl-induced constrictions, are determined (IC50 's).

[4] = system: PAF-induced bronchoconstriction; test: Antagonism of PAF-induced bronchoconstriction in the guinea pig; format: in vivo, guinea pig (Hartley strain); conditions: Cavia porcellus, po, 2 hour pretreatment; read-out: ID50 antagonism of PAF-induced bronchoconstriction
Protocol: (g) Antagonism of PAF and Histamine-induced Bronchoconstriction in Guinea Pig
Spontaneously breathing male guinea pigs (Hartley strain) weighing 300-450 grams are dosed orally with test drug or control vehicle two hours prior to challenge with agonist. The animals are anesthetized with urethane (2 gm/kg) intraperitoneally and the jugular vein and trachea are cannulated. Two hours after dosing, the animal is paralyzed with succinylcholine (1.2 mg/kg, i.v.) and ventilated (Harvard rodent respirator) at 40 breaths/minutes and 2.5 cc tidal volume. Propranolol (0.1 mg/kg, i.v.) is administered and five minutes thereafter the animal is challenged with a constrictory dose of platelet activating factor (10 μg/kg, i.v.) or histamine dihydrochloride (20 μg/kg, i.v.). The change (cm H2 O) between pre and peak ventilatory pressure readings is averaged for three control animals and five drug treated animals. The percent inhibition is calculated from the following formula: (Control-Drug Treated/Control)×100.

[5] = system: arachidonic acid induced platelet aggregation; test: Arachidonic acid induced platelet aggregation in vitro; format: cell-based; conditions: read-out: AA (IC50, arachidonic acid induced platelet aggregation)
Protocol: as §1, §2

[6] = phasic, read-out: IC50 antagonism of KCl-induced constriction (phasic)
[7] = tonic, read-out: IC50 antagonism of KCl-induced constriction (tonic)

SMILES	IC50 [1] [µM]	IC50 [2] [µM]	IC50 [3, 6] [µM]	IC50 [3, 7] [µM]	ED50 [4] [mg/kg]	IC50 [5] [µM]
CC(C)c1ccc2nc3ccc(C(=O)NCCCCCCc4cccnc4)cn3c(=O)c2c1 [Compound C, 2-(1-Methylethyl)-N-[6-(3-pyridyl)hexyl]-11-oxo-11H-pyrido[2,1-b]quinazoline-8-carboxamide]	< 10	0.1	5.4	2.4	50	< 10
CC(C)c1ccc2nc3ccc(C(=O)NCCCCc4cccnc4)cn3c(=O)c2c1 [Compound B, 2-(1-methylethyl)-N-[4-(3-pyridyl)butyl]-11-oxo-11H-pyrido[2,1-b]quinazoline-8-carboxamide]	< 10	0.1 to 1	13	8	100	< 10
CC(C)c1ccc2nc3ccc(C(=O)NCCCCn4ccnc4)cn3c(=O)c2c1 [Compound A, N-[4-(1H-imidazol-1-yl)butyl]-2-(1-methylethyl)-11-oxo-11H-pyrido[2,1-b]quinazoline-8-carboxamide]	> 10	0.1 to 1	17	10	13	< 10
